This note sets out measurements from patent US20220194938A1, “NOVEL COMPOUNDS AND PHARMACEUTICAL COMPOSITIONS THEREOF FOR THE TREATMENT OF INFLAMMATORY DISORDERS” (GALAPAGOS NV, priority 2019, published 2022).

The target in one data set is T1, hERG channel (Homo sapiens, UniProt Q12809).
T1 construct: host or cells: HEK293
Description: hERG channel test - manual patch clamp assay. In kind it is cell-based. Conditions: 10 μM, HEK293 cells stably transfected with hERG, tail current. On the procedure: 4.7 hERG Channel Test—Manual Patch Clamp Assay
The aim of this assay is to determine the in-vitro effects of a test compound on hERG current ([…]) expressed in Human Embryonic Kidney (HEK) cells (evaluation of the blocking profile of test substance on the IKr-like potassium current mediated by hERG channel stably transfected in a human cell line), which is linked to cardiac safety.
The test substance is dissolved in pure dimethylsulfoxide (DMSO) by cold stirring to give a stock solution concentrated 333-fold as compared with the highest concentration to be tested. This stock solution is used to prepare the other stock solutions in DMSO. Each stock solution is used to prepare the solutions containing the final concentrations tested by dilution in extracellular solution (0.1, 1, 10 and 100 μM). Final concentration of DMSO should not not exceed 0.3%.
All formulations are prepared in glass containers.
If a slight opalescence persists at the highest concentration, a 50 μM (instead of 100 μM) concentration is tested.
DMSO diluted in extracellular solution (at the different concentrations used in the final test substance solutions) is used as vehicle.
The extracellular solution is constituted as follows (mM): K-gluconate: 4 mM/Na-gluconate: 145 mM/Mg-gluconate: 2 mM/Ca-gluconate: 3.5 mM/HEPES: 5 mM/glucose: 5 mM/mannitol: 20 mM. The pH is adjusted with NaOH to 7.40±0.05.
Human embryonic kidney (HEK293) cells are stably transfected with the hERG clone (Creacell) and are maintained at 37° C. in a 5% CO2/95% air incubator. Cells used for the study are transferred to an experimental chamber of approximately 2 mL which is maintained at a temperature of 35±0.5° C. by a thermoelectric device (Harvard Apparatus: Type TC-344B) and mounted on the platform of an inverted microscope (Olympus: Type IX-51 or Leica DMI3000 B). Cells are continuously superfused with Tyrode's solution constituted as follows (mM): NaCl: 145/KCl: 4/HEPES: 5/glucose: 5/CaCl2:1/MgCl2: 1.
Ionic currents from hERG-transfected cells are measured using the whole cell configuration of the patch clamp technique. Glass pipettes are pulled from borosilicate glass by a vertical puller (Sutter Instruments: Type P30). Pipette tip resistance is approximately 1.5 to 3.5 MΩ when filled with internal solution constituted as follows (mM): K-gluconate: 145/Mg-gluconate: 1/EGTA: 2/HEPES:5/K2ATP: 2.
The pipettes are connected to the input stage of a patch-clamp amplifier (Axon Instruments: Multiclamp 700B-1). Stimulation, data recording and analysis are performed using specialized Axon Instruments software (pClamp 9.2.0. or pClamp 10.3.0.2).
After rupture of the cell membrane (entering whole-cell mode), cells are stimulated every 10 seconds using the following protocol: 500 ms pulse to +10 mV from a holding potential of −80 mV followed by a 500 ms pulse to −40 mV during which tail current is measured.
Once the current under control conditions is stable, recordings are taken before (control) and after addition of the test substance. The effect of the test substance on tail current is monitored continuously until steady-state is reached. The peak tail current amplitude is averaged for 3 stimuli.
The following parameters are measured: • Cell capacitance (pF). • Peak tail current amplitude (pA).
Peak tail current measurements are normalized using the cell capacitance as an index of cell surface.
The cells will be considered as valid if cell capacitance <80 pF, access resistance <20 MΩ and holding current >−200 pA.
Results are expressed as absolute values and as percentage change from control (percentage of tail current inhibition).
The test substance is studied at 4 ascending concentrations on 3 hERG-transfected cells.
The concentration of test substance inducing 50% of inhibition (IC50) of tail current is determined, if possible, from each individual concentration-response curve. The equation is of the following form: […]
On the technique in general: hERG is a cardiac potassium channel; its block is linked to QT prolongation.

Another data set concerns the target T2, human IRAK-4 (Homo sapiens, UniProt Q9NWZ3).
T2 construct: purchased Carna Biosciences 09 145
T2 sequence (Q9NWZ3 1-460): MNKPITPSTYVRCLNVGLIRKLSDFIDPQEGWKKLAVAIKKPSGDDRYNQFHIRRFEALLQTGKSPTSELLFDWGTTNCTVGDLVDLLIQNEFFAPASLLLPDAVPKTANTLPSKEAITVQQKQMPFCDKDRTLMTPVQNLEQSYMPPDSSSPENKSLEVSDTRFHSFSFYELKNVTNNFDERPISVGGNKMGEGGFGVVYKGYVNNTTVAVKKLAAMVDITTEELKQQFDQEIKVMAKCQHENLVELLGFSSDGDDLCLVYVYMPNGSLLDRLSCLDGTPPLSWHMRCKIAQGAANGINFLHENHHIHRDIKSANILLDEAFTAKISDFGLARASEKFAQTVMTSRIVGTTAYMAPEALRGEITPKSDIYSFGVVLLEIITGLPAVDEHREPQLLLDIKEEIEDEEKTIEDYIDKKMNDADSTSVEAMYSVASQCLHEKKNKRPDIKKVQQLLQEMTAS
Description: Phosphorylation IC50 determination for human IRAK-4 (ADP-Glo kinase assay). Conditions: human IRAK-4, RIP140 substrate, Km ATP; read-out: IRAK4 ADPglo biochemical assay IC50. On the procedure:
3.1. Phosphorylation IC50 Determination for Human IRAK-4
The phosphorylation of the substrate RIP140 (SEQ ID1) by IRAK4 at Km ATP was detected with the ADP-Glo Kinase Assay (Promega, Cat #V9103), a luminescent kinase assay which measures the ADP formed from a kinase reaction. (Zegzouti et al. 2009) In a second step the kinase reaction was terminated and all the remaining ATP was depleted. In a final step the ADP was converted into ATP and this newly synthesized ATP was measured by using a luciferase/luciferin reaction with a luminescent reader. The luminescent signal positively correlated with kinase activity, in particular kinase inhibition giving a decrease of the luminescent signal.
For the semi-automated assay, the positive control (100% inhibition) was prepared by diluting 10 mM staurosporine stock mixture (20 μL) in water (3.8 mL) and DMSO (180 μL), thus resulting in a […] staurosporine solution at 1% DMSO (final concentration after further dilution in the kinase reaction).
For the automated assay, no pre-dilution of the 10 mM staurosporine stock was made. 10 mM staurosporine was spotted directly in the assay plate using acoustic dispensing and complemented with DMSO to result in a similar final concentration as mentioned above.
For the semi-automated assay, the negative control (0% inhibition) was prepared by mixing water (3.8 mL) and DMSO (200 μL) resulting in a final concentration of 1% DMSO after further dilution in the kinase reaction. For the automated assay no pre-dilution of DMSO was done. 100% DMSO was spotted directly on the assay plate.
The assay buffer solution was prepared at a concentration corresponding to 5 fold the final (most diluted) assay concentration by mixing a solution of 125 mM TRIS pH 7.5+0.05% Triton X-100+2.5 mM EGTA (5.27 mL) with 1M mgCl2 (72 μL), 1M DTT (57.6 μL), and 200 mM MnCl2 (360 μL).
For example, for the semi-automated method, the enzyme-substrate mixture was prepared by mixing water (3999 μL), assay buffer solution (1380 μL), 1 mM RIP140 (138 μL—SEQ ID1), and 200 ng/mL IRAK 4 (3.45 μL Carna Biosciences, 09 145).
For semi-automated method, the ATP mixture was prepared at a concentration corresponding to 2.5 fold the final (most diluted) assay concentration of the semi-automated method and 1.5 fold the final (most diluted) assay concentration of the automated method. For example, for the semi-automated method, the ATP mixture was prepared by mixing water (4126 μL), assay buffer solution (1380 μL), and 10 mM ATP (13.80 μL).
The assay was performed either in a semi-automated or fully automated manner. The assay volume and the incubation time of the ADP detection were different accordingly the method used.
3.1.3.1. Semi-Automated Assay
The compounds were prepared as a serial dilution of 10 point dose responses with 1/5 dilution steps in 100% DMSO starting from 2 mM highest concentration, diluted 1/20 in water. 1 μL was transferred dry to the assay plates.
On each assay plate 32 wells of each control (positive & negative) were added, followed by 2 μL enzyme-substrate mixture.
The reaction was started by adding 2 μL diluted ATP (final concentration Km ATP) on the assay plates. Plates were centrifuged for a few seconds at 1000 rpm followed by an incubation at r.t. for 120 min.
The reactions were stopped and the unconsumed ATP was depleted by adding 5 μL ADP-glo Reagent (Promega, Cat #V9103) to the reaction. The plates were quickly centrifuged at 1000 rpm and incubated at r.t. for 40 min corresponding to full ATP depletion.
The ADP was converted back to ATP and luciferase and luciferin were introduced to detect ATP by adding 10 μL kinase detection reagent (Promega, Cat #V9103) to the reaction. The plates were centrifuged for a few seconds at 1000 rpm and incubated at r.t. for a further 30 min.
Luminescent read out was performed on an Envision luminescent reader (Perkin Elmer). […]
Background: In ADP-Glo the light output rises with the ADP produced.

T1 sequence (Q12809 whole entry): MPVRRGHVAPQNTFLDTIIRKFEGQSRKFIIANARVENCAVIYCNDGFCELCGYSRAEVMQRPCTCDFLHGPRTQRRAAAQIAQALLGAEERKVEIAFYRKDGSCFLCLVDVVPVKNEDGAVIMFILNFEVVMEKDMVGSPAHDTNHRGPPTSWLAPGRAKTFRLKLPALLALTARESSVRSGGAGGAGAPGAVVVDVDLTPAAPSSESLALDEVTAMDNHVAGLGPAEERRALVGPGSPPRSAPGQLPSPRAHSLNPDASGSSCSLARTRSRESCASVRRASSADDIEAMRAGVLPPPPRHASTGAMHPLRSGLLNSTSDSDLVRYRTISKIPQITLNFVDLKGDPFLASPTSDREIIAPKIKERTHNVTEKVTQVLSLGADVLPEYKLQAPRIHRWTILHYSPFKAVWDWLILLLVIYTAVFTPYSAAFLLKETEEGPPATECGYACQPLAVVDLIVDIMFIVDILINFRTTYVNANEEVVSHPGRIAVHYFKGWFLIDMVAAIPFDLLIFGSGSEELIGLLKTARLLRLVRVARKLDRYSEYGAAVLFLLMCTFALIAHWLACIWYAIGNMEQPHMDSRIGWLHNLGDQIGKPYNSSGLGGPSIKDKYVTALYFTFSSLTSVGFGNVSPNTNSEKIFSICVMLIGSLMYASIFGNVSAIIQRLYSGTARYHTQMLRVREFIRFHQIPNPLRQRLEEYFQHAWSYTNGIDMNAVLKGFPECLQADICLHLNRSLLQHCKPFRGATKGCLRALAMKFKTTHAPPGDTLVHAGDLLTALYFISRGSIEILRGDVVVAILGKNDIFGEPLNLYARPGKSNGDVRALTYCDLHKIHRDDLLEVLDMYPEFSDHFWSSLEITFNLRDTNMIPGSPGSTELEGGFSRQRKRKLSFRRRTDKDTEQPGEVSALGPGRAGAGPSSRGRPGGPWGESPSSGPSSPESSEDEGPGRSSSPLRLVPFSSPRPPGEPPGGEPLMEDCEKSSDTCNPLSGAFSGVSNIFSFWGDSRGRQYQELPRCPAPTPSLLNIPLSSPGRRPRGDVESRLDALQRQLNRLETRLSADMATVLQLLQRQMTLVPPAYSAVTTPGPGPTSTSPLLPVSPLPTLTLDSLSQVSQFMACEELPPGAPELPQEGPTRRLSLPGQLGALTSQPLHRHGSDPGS

Broadly, the IC50 is the concentration that inhibits the measured activity by half. On to `CC(C)(O)CCc1cn2cc(NC(=O)c3cccc(C(F)(F)F)n3)c(C(=O)NCC(F)(F)F)cc2n1` [Compound 41, 2-(3-hydroxy-3-methylbutyl)-N-(2,2,2-trifluoroethyl)-6-(6-(trifluoromethyl)picolinamido)imidazo[1,2-a]pyridine-7-carboxamide], for which the “hERG Manual Patch Clamp Single dose PIN (10 μM)” value at hERG channel is recorded as −17%. At human IRAK-4, the 50% inhibitory concentration (IC50) fell in the range of 0.1 to 5 nM.
